Assay results from US8815852B2, “Carbamoyloxy arylalkan arylpiperazine analgesics” (SK Biopharmaceuticals Co., Ltd., priority 2007, dated 2014).

Each compound was assayed on male ICR mouse (assay: Acetic acid-induced writhing test in mouse). Conditions: Mus musculus, po, 1 h, at 10 po (method: 10 mg/kg oral, 1 hour before acetic acid); read-out: AA Writhing: Suppression ratio of Pain response.
Type: in vivo
Protocol: 2. Acetic Acid-Induced Writhing Test in Mouse
An acetic acid-induced writhing test is one of models for measuring an analgesic effect of drugs. A test material dissolved in a suitable vehicle was orally administered to a male ICR mouse weighing 30 to 35 g at an amount of 10 mg/kg. After 1 hour of the oral administration, […] of an aqueous 0.8% acetic acid solution was intraperitoneally injected into the male ICR mouse to induce the abdominal pain of the male ICR mouse. Right after the administration of acetic acid, the male ICR mouse was put into an empty cage, and the number of writhing behaviors of the mice was counted for 10 minutes. The term “writhing represents a reflex action in which the mouse overtly extends its abdomen by stretching its hind legs due to the abdominal pain. The analgesic effect of the test material is represented by the ‘suppression ratio of pain response’ {[(Writhing number of Vehicle-administered group−Writhing number of Test material-administered group)/(Writhing number of Vehicle-administered group)]×100%} or 50% of Effective amount (ED50 (median effective dose); an amount of test material that is required to suppress 50% of pain behaviors) of Test material. The ED50 (median effective dose) was determined by calculating the suppression ratio of pain response in at least three doses of test materials and subjecting to the linear regression.

| SMILES | inhibition in vivo at 10 mg/kg [%] |
| --- | --- |
| COc1ccc(N2CCN(CCC(OC(N)=O)c3ccc([N+](=O)[O-])cc3)CC2)cc1 (stereo not drawn) [Example 44, Carbamic acid 3-[4-(4-methoxy-phenyl)-piperazin-1-yl]-1-(4-nitro-phenyl)-propyl ester] | 64 |
| COc1ccc(N2CCN(CCC(OC(N)=O)c3cccc(Cl)c3)CC2)cc1 (stereo not drawn) [Example 45, Carbamic acid 1-(3-chloro-phenyl)-3-[4-(4-methoxy-phenyl)-piperazin-1-yl]-propyl ester] | 62 |
| COc1ccc(N2CCN(CCC(OC(N)=O)c3ccccc3F)CC2)cc1 (stereo not drawn) [Example 46, Carbamic acid 1-(2-fluoro-phenyl)-3-[4-(4-methoxy-phenyl)-piperazin-1-yl]-propyl ester] | 42 |
| COc1ccc(C(CCN2CCN(c3ccc(OC)cc3)CC2)OC(N)=O)cc1 (stereo not drawn) [Example 47, Carbamic acid 1-(4-methoxy-phenyl)-3-[4-(4-methoxy-phenyl)-piperazin-1-yl]-propyl ester] | 53 |
| COc1ccc(N2CCN(CCC(OC(N)=O)c3ccc(C(C)(C)C)cc3)CC2)cc1 (stereo not drawn) [Example 48] | 93 |
| COc1ccc(N2CCN(CCC(OC(N)=O)c3ccc4ccccc4c3)CC2)cc1 (stereo not drawn) [Example 49, Carbamic acid 3-[4-(4-methoxy-phenyl)-piperazin-1-yl]-1-naphthalen-2-yl-propyl ester] | 64 |
| COc1ccc(N2CCN(CCC(OC(N)=O)c3ccccc3Cl)CC2)cc1 (stereo not drawn) [Example 50, Carbamic acid 1-(2-chloro-phenyl)-3-[4-(4-methoxy-phenyl)-piperazin-1-yl]-propyl ester] | 49 |
| COc1ccc(N2CCN(CCC(OC(N)=O)c3ccccc3C(F)(F)F)CC2)cc1 (stereo not drawn) [Example 51, Carbamic acid 3-[4-(4-methoxy-phenyl)-piperazin-1-yl]-1-(2-trifluoromethyl-phenyl)-propyl ester] | 95 |
| COc1ccc(N2CCN(CCC(OC(N)=O)c3ccc(F)c(F)c3)CC2)cc1 (stereo not drawn) [Example 52, Carbamic acid 1-(3,4-difluoro-phenyl)-3-[4-(4-methoxy-phenyl)-piperazin-1-yl]-propyl ester] | 61 |
| COc1ccc(N2CCN(CCC(OC(N)=O)c3cccc(F)c3)CC2)cc1 (stereo not drawn) [Example 53, Carbamic acid 1-(3-fluoro-phenyl)-3-[4-(4-methoxy-phenyl)-piperazin-1-yl]-propyl ester] | 57 |
| COc1ccc(N2CCN(CCC(OC(N)=O)c3cccc(OC)c3)CC2)cc1 (stereo not drawn) [Example 54, Carbamic acid 1-(3-methoxy-phenyl)-3-[4-(4-methoxy-phenyl)-piperazin-1-yl]-propyl ester] | 69 |
| COc1ccc(N2CCN(CCC(OC(N)=O)c3cccc4ccccc34)CC2)cc1 (stereo not drawn) [Example 55, Carbamic acid 3-[4-(4-methoxy-phenyl)-piperazin-1-yl]-1-naphthalen-1-yl-propyl ester] | 16 |
| COc1ccc(N2CCN(CCC(OC(N)=O)c3ccc(C)cc3)CC2)cc1 (stereo not drawn) [Example 56, Carbamic acid 3-[4-(4-methoxy-phenyl)-piperazin-1-yl]-1-p-tolyl-propyl ester] | 93 |
| COc1ccc(N2CCN(CCC(OC(N)=O)c3cccc(C)c3)CC2)cc1 (stereo not drawn) [Example 57, Carbamic acid 3-[4-(4-methoxy-phenyl)-piperazin-1-yl]-1-m-tolyl-propyl ester] | 52 |
| COc1ccc(N2CCN(CCC(OC(N)=O)c3ccc(Cl)cc3Cl)CC2)cc1 (stereo not drawn) [Example 58, Carbamic acid 1-(2,4-dichloro-phenyl)-3-[4-(4-methoxy-phenyl)-piperazin-1-yl]-propyl ester] | 16 |
| COc1ccc(N2CCN(CCC(OC(N)=O)c3ccccc3C)CC2)cc1 (stereo not drawn) [Example 59, Carbamic acid 3-[4-(4-methoxy-phenyl)-piperazin-1-yl]-1-o-tolyl-propyl ester] | 48 |
| COc1ccc(N2CCN(CCC(OC(N)=O)c3ccc(C)cc3C)CC2)cc1 (stereo not drawn) [Example 60, Carbamic acid 1-(2,4-dimethyl-phenyl)-3-[4-(4-methoxy-phenyl)-piperazin-1-yl]-propyl ester] | 62 |

| SMILES | inhibition in vivo at 10 mg/kg [%] |
| --- | --- |
| COc1ccc(N2CCN(CCC(OC(N)=O)c3ccc(C)c(C)c3)CC2)cc1 (stereo not drawn) [Example 61, Carbamic acid 1-(3,4-dimethyl-phenyl)-3-[4-(4-methoxy-phenyl)-piperazin-1-yl]-propyl ester] | 58 |
| COc1ccc(N2CCN(CCC(OC(N)=O)c3cc(C)ccc3C)CC2)cc1 (stereo not drawn) [Example 62, Carbamic acid 1-(2,5-dimethyl-phenyl)-3-[4-(4-methoxy-phenyl)-piperazin-1-yl]-propyl ester] | 62 |
| COc1ccc(N2CCN(CCC(OC(N)=O)c3ccc(Cl)c(C(F)(F)F)c3)CC2)cc1 (stereo not drawn) [Example 63, Carbamic acid 1-(4-chloro-3-trifluoromethyl-phenyl)-3-[4-(4-methoxy-phenyl)-piperazin-1-yl]-propyl ester] | 46 |
| COc1ccc(N2CCN(CCC(OC(N)=O)c3ccccc3[N+](=O)[O-])CC2)cc1 (stereo not drawn) [Example 64, Carbamic acid 3-[4-(4-methoxy-phenyl)-piperazin-1-yl]-1-(2-nitro-phenyl)-propyl ester] | 59 |
| COc1ccc(N2CCN(CCC(OC(N)=O)c3cccc([N+](=O)[O-])c3)CC2)cc1 (stereo not drawn) [Example 65, Carbamic acid 3-[4-(4-methoxy-phenyl)-piperazin-1-yl]-1-(3-nitro-phenyl)-propyl ester] | 39 |
| COc1ccc(N2CCN(CCC(OC(N)=O)c3ccc(C(F)(F)F)cc3)CC2)cc1 (stereo not drawn) [Example 66, Carbamic acid 3-[4-(4-methoxy-phenyl)-piperazin-1-yl]-1-(4-trifluoromethyl-phenyl)-propyl ester] | 95 |
| COc1ccc(N2CCN(CCC(OC(N)=O)c3ccc4c(c3)OCO4)CC2)cc1 (stereo not drawn) [Example 67] | 57 |
| COc1ccc(N2CCN(CCC(OC(N)=O)c3cccc(C(F)(F)F)c3)CC2)cc1 (stereo not drawn) [Example 68, Carbamic acid 3-[4-(4-methoxy-phenyl)-piperazin-1-yl]-1-(3-trifluoromethyl-phenyl)-propyl ester] | 48 |
| COc1ccc(N2CCN(CCC(OC(N)=O)c3ccc(Cl)c(Cl)c3)CC2)cc1 (stereo not drawn) [Example 70, Carbamic acid 1-(3,4-dichloro-phenyl)-3-[4-(4-methoxy-phenyl)-piperazin-1-yl]-propyl ester] | 51 |
| COc1ccc(N2CCN(CCC(OC(N)=O)c3ccc(Cl)cc3)CC2)cc1 (stereo not drawn) [Example 71, Carbamic acid 1-(4-chloro-phenyl)-3-[4-(4-methoxy-phenyl)-piperazin-1-yl]-propyl ester] | 61 |
| NC(=O)OC(CCN1CCN(c2ccc(O)cc2)CC1)c1ccc(Cl)c(C(F)(F)F)c1 (stereo not drawn) [Example 72, Carbamic acid 1-(4-chloro-3-trifluoromethyl-phenyl)-3-[4-(4-hydroxy-phenyl)-piperazin-1-yl]-propyl ester] | 53 |
| NC(=O)OC(CCN1CCN(c2ccc(O)cc2)CC1)c1ccc(Cl)c(Cl)c1 (stereo not drawn) [Example 73, Carbamic acid 1-(3,4-dichloro-phenyl)-3-[4-(4-hydroxy-phenyl)-piperazin-1-yl]-propyl ester] | 55 |
| CCOc1ccccc1N1CCN(CCC(OC(N)=O)c2ccc(F)cc2)CC1 (stereo not drawn) [Example 74, Carbamic acid 3-[4-(2-ethoxy-phenyl)-piperazin-1-yl]-1-(4-fluoro-phenyl)-propyl ester] | 44 |
| COc1ccc(Cl)cc1N1CCN(CCC(OC(N)=O)c2ccc(F)cc2)CC1 (stereo not drawn) [Example 75, Carbamic acid 3-[4-(5-chloro-2-methoxy-phenyl)-piperazin-1-yl]-1-(4-fluoro-phenyl)-propyl ester] | 14 |
| NC(=O)OC(CCN1CCN(c2ccc(Cl)c(Cl)c2)CC1)c1ccc(F)cc1 (stereo not drawn) [Example 76, Carbamic acid 3-[4-(3,4-dichloro-phenyl)-piperazin-1-yl]-1-(4-fluoro-phenyl)-propyl ester] | 50 |
| COc1ccc(N2CCN(CC3CCc4ccccc4C3OC(N)=O)CC2)cc1 (stereo not drawn) [Example 82, Carbamic acid 2-[4-(4-methoxy-phenyl)-piperazin-1-ylmethyl]-1,2,3,4-tetrahydro-naphthalen-1-yl ester] | 55 |
| NC(=O)OC(CCN1CCN(c2ccc(OCc3ccccc3)cc2)CC1)c1ccccc1 (stereo not drawn) [Example 85, Carbamic acid 3-[4-(4-benzyloxyphenyl)-piperazin-1-yl]-1-phenyl-propyl ester] | 58 |

Same assay, conditions: Mus musculus; po; unit not given (method doses in mg/kg); read-out: AA Writhing: ED50

| SMILES | ED50 [mg/kg] |
| --- | --- |
| COc1ccc(N2CCN(CCC(OC(N)=O)c3ccc(F)cc3)CC2)cc1 (stereo not drawn) [Example 77, Carbamic acid 1-(4-fluoro-phenyl)-3-[4-(4-methoxy-phenyl)-piperazin-1-yl]-propyl ester] | 12.4 |

Same assay, conditions: at 10 po (method: 10 mg/kg oral, 1 hour before acetic acid)

| SMILES | AA Writhing: Suppression ratio of Pain response [%] |
| --- | --- |
| COc1ccc(N2CCN(CCC(OC(N)=O)c3ccccc3F)CC2)cc1 (stereo not drawn) [Example 69, Carbamic acid 1-(2-fluoro-phenyl)-3-[4-(4-methoxy-phenyl)-piperazin-1-yl]-propyl ester] | 57 |
